From patent publication US20230257351A1, “SUBSTITUTED N-[…] HAVING P2X4 RECEPTOR ANTAGONISTIC ACTIVITY” (Bayer Aktiengesellschaft, priority 2020, published 2023) come the findings set out here.

The target of one assay is T1, human P2X4 (Homo sapiens, UniProt Q99571).
T1 construct: expressed in transfected cells
T1 sequence (Q99571 1-388): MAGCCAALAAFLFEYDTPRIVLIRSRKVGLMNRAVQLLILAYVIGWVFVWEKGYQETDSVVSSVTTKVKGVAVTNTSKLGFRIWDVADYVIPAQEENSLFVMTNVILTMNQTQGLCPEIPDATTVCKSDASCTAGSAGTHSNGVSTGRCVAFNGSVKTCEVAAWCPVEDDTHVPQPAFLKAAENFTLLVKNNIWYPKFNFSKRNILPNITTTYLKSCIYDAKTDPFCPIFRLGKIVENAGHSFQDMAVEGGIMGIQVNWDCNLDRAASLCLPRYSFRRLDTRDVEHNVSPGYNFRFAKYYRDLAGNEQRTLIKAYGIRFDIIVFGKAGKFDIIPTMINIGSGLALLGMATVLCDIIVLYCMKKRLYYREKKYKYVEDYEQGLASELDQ
As to the kind of experiment: Human P2X4 HEK Cell FLIPR Assay. The following applies: HEK293 stably expressing human P2X4, agonist Bz-ATP 3 μM (EC80). The format is cell-based. A digest of the protocol:
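HEK293 cells stably expressing human P2X4 were loaded with Fluo8-AM (30 min, 37 °C, HBSS/HEPES pH 7.4 with probenecid), then preincubated 30 min at room temperature with compound, 25 μM–1 nM final, 0.5% DMSO. Bz-ATP-evoked calcium fluorescence was read on FLIPR; data were normalized to agonist control and given a four-parameter fit for IC50.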

The next assay addresses T2, rat P2X4 (Rattus norvegicus, UniProt P51577).
T2 construct: expressed in transfected cells
T2 sequence (P51577 1-388): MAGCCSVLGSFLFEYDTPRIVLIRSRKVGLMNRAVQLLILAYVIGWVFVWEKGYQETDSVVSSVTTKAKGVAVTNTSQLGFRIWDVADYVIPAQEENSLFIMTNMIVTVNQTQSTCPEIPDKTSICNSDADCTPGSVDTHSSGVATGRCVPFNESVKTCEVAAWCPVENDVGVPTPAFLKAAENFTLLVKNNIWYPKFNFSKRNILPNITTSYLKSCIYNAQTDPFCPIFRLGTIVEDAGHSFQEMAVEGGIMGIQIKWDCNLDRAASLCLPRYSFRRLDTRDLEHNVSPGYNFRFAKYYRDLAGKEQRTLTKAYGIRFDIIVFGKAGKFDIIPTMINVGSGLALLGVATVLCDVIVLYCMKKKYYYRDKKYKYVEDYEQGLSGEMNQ
As to the kind of experiment: FLIPR Method for Rat P2X4 1321N1 Astrocytoma Cells. The format is cell-based. The settings on record: 1321N1 stably expressing rat P2X4; agonist MgATP 5 μM (EC80). A digest of the protocol: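 1321N1 cells stably expressing rat P2X4, Fluo8-AM loaded; compounds (25 μM to 1 nM final, ten concentrations) preincubated 30 min at room temperature, then MgATP added at 5 μM (EC80). Calcium fluorescence read on FLIPR before and after agonist; triplicate data normalized to agonist control, four-parameter fit gives IC50.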

As usually defined, the IC50 is the midpoint of a concentration-inhibition curve.

`CC(=O)N(c1ccc(F)c(F)c1)c1cc(NC(=O)Cc2ccc(F)cc2Cl)ccn1` [Example 68, N-{4-[2-(2-chloro-4-fluorophenyl)acetamido]pyridin-2-yl}-N-(3,4-difluorophenyl)acetamide]: the “Human P2X4 HEK Cells (FLIPR Assay) avg Efficacy” value at human P2X4 amounted to 95%. For the same molecule, the half-inhibitory concentration (IC50) at human P2X4 (read-out: Human P2X4 HEK Cells (FLIPR Assay) avg IC50) was found to be 411 nM. Also, on rat P2X4, the IC50 was found to be 233 nM and the “Rat P2X4 1321N1 Astrocytoma Cells (FLIPR Assay) avg Efficacy” value is reported as 89%.
